The source made the active and inactive calls. The calls are words filed in the database; no cut-off is given here.
Legend:
[1] = target: T1, Dual specificity tyrosine-phosphorylation-regulated kinase 3 (Homo sapiens) (UniProt O43781); experiment: Inhibition of human DYRK3 at 1.82 nM by HotSpot assay relative to control
T1 sequence (whole entry): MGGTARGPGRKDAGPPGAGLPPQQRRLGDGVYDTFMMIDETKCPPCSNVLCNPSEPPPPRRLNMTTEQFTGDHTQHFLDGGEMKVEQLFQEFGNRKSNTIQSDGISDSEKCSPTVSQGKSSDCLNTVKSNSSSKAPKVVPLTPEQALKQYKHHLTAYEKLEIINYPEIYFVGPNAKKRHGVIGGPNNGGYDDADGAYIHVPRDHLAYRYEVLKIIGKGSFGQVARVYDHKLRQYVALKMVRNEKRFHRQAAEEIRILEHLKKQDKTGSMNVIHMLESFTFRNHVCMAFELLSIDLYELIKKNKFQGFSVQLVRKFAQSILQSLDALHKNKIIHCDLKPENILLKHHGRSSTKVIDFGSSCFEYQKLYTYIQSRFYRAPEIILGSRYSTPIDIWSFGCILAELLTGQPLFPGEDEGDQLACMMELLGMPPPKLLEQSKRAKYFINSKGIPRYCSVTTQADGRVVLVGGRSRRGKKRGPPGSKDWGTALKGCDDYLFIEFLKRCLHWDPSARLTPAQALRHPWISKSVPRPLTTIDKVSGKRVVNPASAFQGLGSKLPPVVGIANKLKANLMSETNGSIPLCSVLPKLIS

[2] = target: Serine/threonine-protein kinase SIK2 (Homo sapiens) (UniProt Q9H0K1); experiment: Inhibition of human SIK2 at 1.82 nM by HotSpot assay relative to control
Chain of Serine/threonine-protein kinase SIK2 (Homo sapiens) (Q9H0K1 whole entry, looked up): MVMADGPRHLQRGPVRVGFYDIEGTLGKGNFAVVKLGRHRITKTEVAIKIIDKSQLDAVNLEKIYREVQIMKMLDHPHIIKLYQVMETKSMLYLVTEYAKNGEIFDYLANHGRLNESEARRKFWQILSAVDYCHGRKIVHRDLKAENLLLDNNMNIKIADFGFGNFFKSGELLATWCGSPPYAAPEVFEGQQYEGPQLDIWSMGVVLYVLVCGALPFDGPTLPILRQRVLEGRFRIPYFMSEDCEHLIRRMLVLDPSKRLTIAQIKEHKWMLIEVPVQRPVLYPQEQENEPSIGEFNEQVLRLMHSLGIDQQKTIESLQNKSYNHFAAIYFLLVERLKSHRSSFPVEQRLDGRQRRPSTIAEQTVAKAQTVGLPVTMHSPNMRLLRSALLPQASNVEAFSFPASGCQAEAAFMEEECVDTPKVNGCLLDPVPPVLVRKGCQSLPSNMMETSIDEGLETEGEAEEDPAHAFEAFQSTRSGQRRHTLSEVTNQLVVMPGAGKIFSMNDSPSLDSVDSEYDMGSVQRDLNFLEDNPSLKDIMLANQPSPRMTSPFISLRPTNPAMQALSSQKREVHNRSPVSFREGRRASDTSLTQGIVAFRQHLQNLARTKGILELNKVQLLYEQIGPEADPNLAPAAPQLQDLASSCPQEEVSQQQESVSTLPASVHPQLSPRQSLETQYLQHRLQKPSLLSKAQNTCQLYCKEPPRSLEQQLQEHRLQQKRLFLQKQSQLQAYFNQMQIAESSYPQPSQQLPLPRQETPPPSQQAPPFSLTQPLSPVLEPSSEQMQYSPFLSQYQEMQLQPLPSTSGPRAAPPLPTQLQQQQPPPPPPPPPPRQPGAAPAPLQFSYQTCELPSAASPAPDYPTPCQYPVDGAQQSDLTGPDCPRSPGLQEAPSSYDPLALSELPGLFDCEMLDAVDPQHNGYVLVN

[3] = target: T2, Serine/threonine-protein kinase TAO1 (Homo sapiens) (UniProt Q7L7X3); experiment: Inhibition of human TAOK1 at 1.82 nM by HotSpot assay relative to control
T2 sequence (whole entry): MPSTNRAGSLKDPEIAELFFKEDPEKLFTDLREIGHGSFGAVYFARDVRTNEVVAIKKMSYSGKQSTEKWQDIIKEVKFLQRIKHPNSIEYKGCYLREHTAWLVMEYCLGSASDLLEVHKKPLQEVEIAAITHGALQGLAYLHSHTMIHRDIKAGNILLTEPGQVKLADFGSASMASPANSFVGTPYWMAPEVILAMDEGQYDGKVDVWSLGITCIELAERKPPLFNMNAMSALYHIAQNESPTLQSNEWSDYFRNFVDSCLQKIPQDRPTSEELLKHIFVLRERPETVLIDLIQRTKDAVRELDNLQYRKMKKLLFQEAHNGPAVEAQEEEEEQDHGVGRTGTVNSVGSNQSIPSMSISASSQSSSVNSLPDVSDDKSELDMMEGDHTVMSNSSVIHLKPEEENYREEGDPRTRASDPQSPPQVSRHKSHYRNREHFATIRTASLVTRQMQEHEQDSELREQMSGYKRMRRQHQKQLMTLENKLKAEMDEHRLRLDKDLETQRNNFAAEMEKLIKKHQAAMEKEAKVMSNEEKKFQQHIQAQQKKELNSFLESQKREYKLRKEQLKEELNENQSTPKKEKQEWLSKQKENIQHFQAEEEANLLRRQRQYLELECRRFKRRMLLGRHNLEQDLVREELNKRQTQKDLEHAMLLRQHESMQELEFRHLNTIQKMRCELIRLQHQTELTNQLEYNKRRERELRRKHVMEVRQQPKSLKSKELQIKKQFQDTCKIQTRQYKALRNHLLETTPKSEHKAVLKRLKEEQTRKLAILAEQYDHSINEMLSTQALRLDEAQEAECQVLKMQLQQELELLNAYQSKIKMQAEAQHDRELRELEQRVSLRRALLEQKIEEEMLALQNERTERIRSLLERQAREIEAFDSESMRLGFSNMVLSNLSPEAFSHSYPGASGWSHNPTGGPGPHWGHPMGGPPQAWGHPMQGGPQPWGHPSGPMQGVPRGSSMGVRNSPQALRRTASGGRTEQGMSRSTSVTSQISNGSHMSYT

[4] = target: Serine/threonine-protein kinase PAK 6 (Homo sapiens) (UniProt Q9NQU5); experiment: Inhibition of human PAK6 at 18.6 nM by HotSpot assay relative to control
Chain of Serine/threonine-protein kinase PAK 6 (Homo sapiens) (Q9NQU5 whole entry, looked up): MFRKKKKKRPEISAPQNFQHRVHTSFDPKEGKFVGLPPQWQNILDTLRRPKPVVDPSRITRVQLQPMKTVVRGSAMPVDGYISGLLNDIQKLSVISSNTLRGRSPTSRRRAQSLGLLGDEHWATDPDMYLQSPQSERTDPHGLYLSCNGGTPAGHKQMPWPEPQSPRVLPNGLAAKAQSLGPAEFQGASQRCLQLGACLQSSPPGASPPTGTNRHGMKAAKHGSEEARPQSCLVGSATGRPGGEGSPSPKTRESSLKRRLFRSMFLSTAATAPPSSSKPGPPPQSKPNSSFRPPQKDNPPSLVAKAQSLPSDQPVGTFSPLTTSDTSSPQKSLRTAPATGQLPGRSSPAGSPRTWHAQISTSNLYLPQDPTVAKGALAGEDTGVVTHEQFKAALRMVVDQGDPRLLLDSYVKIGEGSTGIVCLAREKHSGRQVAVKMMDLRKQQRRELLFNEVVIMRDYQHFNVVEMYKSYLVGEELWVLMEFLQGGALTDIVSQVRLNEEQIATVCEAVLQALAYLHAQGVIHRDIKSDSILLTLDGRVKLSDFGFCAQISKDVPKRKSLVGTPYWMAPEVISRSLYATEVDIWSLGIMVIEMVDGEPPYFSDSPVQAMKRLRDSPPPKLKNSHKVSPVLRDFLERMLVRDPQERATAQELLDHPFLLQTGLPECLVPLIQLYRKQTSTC

[5] = target: T3, Dual specificity tyrosine-phosphorylation-regulated kinase 4 (Homo sapiens) (UniProt Q9NR20); experiment: Inhibition of human DYRK4 at 18.6 nM by HotSpot assay relative to control
T3 sequence (whole entry): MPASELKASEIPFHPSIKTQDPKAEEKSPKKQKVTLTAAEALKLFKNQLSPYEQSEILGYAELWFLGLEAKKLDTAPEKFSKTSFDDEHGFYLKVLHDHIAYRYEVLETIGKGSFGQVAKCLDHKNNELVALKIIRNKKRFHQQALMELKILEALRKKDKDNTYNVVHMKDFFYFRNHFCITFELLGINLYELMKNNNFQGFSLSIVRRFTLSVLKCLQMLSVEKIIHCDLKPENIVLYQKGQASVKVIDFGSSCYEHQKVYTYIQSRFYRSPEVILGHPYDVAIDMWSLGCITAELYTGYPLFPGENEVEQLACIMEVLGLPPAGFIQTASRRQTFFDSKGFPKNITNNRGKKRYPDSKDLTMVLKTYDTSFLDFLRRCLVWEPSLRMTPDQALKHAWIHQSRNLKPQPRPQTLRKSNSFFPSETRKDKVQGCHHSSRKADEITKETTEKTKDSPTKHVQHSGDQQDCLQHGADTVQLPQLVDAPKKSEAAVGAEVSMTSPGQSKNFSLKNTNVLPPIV

[6] = target: ALK tyrosine kinase receptor (Homo sapiens) (UniProt Q9UM73); experiment: Inhibition of human ALK at 18.6 nM by HotSpot assay relative to control
Chain of ALK tyrosine kinase receptor (Homo sapiens) (Q9UM73 19-1620 limits assumed): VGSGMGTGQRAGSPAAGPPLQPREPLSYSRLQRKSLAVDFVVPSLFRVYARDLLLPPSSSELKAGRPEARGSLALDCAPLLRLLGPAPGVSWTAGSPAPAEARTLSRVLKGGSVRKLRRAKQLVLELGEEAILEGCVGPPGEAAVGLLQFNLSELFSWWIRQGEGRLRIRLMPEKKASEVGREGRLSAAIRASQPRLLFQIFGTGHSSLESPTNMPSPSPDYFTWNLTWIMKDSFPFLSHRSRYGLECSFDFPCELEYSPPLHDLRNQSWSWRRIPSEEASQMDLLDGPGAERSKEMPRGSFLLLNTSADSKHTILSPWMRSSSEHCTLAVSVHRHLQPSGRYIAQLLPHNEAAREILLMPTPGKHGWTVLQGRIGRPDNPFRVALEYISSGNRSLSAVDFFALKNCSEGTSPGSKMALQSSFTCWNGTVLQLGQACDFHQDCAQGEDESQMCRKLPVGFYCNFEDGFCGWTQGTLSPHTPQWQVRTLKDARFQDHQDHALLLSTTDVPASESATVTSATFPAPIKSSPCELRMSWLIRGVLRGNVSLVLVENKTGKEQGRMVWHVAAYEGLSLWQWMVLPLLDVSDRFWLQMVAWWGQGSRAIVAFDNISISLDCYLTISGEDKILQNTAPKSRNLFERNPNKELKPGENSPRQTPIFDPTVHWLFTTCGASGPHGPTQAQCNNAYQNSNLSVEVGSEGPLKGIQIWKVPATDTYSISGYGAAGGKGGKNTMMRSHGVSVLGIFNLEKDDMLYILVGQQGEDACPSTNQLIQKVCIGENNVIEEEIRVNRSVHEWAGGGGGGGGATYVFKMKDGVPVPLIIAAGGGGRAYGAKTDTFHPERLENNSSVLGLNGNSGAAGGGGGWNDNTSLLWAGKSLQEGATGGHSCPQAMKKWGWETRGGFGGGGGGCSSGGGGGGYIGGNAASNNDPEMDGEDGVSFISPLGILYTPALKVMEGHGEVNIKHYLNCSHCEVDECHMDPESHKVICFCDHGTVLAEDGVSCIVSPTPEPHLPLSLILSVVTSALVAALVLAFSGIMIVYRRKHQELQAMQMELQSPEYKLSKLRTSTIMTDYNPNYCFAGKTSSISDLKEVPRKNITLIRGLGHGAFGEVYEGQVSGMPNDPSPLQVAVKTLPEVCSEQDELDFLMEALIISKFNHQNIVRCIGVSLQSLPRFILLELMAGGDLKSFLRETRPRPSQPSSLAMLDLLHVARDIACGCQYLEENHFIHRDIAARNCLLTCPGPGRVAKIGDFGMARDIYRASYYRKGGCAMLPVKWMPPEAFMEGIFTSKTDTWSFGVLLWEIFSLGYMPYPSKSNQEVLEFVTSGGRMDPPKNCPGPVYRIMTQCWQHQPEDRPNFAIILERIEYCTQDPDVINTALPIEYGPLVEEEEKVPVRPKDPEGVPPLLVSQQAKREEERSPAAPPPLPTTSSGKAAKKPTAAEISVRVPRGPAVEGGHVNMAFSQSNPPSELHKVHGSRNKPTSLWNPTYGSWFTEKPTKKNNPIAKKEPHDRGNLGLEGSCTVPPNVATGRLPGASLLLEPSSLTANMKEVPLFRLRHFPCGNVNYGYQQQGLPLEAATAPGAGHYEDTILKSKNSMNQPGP

[7] = target: Mitogen-activated protein kinase kinase kinase kinase 5 (Homo sapiens) (UniProt Q9Y4K4); experiment: Inhibition of human KHS at 18.6 nM by HotSpot assay relative to control
Chain of Mitogen-activated protein kinase kinase kinase kinase 5 (Homo sapiens) (Q9Y4K4 whole entry, looked up): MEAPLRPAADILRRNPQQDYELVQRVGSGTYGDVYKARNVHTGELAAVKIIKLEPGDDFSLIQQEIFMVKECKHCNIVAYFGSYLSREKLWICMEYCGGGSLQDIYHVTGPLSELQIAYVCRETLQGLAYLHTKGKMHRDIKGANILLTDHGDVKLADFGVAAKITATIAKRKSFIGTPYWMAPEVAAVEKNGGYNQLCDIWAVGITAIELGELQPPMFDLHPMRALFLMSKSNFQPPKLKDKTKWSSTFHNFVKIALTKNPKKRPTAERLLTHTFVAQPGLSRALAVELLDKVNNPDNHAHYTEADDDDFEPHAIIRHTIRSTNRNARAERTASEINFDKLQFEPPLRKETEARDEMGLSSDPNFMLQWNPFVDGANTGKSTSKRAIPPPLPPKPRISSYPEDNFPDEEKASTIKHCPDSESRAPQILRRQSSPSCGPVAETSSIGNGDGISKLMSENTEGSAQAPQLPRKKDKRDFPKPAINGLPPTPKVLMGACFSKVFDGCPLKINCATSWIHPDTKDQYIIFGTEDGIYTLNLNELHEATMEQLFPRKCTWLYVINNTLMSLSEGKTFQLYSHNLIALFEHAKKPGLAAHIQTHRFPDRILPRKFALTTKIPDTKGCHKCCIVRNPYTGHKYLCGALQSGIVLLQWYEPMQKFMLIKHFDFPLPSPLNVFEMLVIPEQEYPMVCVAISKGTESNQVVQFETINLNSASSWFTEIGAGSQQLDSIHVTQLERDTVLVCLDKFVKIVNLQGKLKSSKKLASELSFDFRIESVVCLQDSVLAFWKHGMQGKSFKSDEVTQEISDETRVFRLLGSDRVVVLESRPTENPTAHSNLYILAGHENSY

[8] = target: Calcium/calmodulin-dependent protein kinase type II subunit beta (Homo sapiens) (UniProt Q13554); experiment: Inhibition of human CAMK2b at 18.6 nM by HotSpot assay relative to control
Chain of Calcium/calmodulin-dependent protein kinase type II subunit beta (Homo sapiens) (Q13554 whole entry): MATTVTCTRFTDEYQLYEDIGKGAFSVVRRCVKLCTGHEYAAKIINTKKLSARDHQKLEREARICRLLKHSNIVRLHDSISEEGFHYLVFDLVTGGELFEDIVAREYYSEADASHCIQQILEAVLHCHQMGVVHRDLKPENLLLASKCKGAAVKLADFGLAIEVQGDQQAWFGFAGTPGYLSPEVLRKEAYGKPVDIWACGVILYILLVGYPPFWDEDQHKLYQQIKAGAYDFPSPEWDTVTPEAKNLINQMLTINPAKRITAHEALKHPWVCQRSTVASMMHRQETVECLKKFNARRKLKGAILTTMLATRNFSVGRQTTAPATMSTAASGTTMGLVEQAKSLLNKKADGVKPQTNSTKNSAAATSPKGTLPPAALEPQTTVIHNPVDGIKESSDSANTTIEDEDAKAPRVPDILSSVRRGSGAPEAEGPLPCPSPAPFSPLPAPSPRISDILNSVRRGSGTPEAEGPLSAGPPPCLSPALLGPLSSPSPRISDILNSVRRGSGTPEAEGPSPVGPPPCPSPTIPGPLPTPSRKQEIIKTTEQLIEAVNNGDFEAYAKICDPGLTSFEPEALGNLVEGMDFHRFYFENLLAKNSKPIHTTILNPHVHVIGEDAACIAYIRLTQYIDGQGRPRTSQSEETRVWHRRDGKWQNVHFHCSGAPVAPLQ

[9] = target: Platelet-derived growth factor receptor beta (Homo sapiens) (UniProt P09619); experiment: Inhibition of human PDGFRb at 18.6 nM by HotSpot assay relative to control
[10] = target: Serine/threonine-protein kinase PLK2 (Homo sapiens) (UniProt Q9NYY3); experiment: Inhibition of human PLK2 at 18.6 nM by HotSpot assay relative to control
[11] = Inhibition of tri-phosphorylated human Insulin receptor (978 to 1283 residues) C981S mutant kinase domain expressed in baculovirus infected Sf9 cells incubated for 1 hr by [gamma-33P]ATP assay

Q: With `C[C@@]1(C(=O)Nc2ccc(F)nc2)CCCN1c1nc(Nc2cc(C3CC3)n[nH]2)c2cccn2n1` as the compound, how does the inhibition [1] read?
A: 8.06%

Q: And the inhibition [2]?
A: -6.97%

Q: And the inhibition [3]?
A: 4.21%

Q: Which results are given for `C[C@]1(O)C[C@@H](c2nc(-c3ccc4ccc(-c5ccccc5)nc4c3)c3c(N)nccn32)C1`?
A: inhibition [4]: -8.39%; inhibition [5]: -1.52%; inhibition [6]: -6.1%; inhibition [7]: 12.1%; inhibition [8]: -1.75%; inhibition [9]: 8.57%; inhibition [10]: -0.58%

Q: For `Oc1n[nH]c2nnc(-c3c(-c4ccccc4)nn4ccccc34)cc12`, which inhibition [11] is on record?
A: inactive

Source: ChEMBL document CHEMBL5653615 (J Biol Chem, 2013)
